Reference: patent US20170291905A1, “ARGININE […] INHIBITORS AND USES THEREOF” (Epizyme, Inc., priority 2014, published 2017)
Structures can show the parent of a compound that is named as a salt.

Biological target: T1, PRMT1 (Homo sapiens, UniProt Q99873)
T1 construct: host or cells: RKO cells
Test: RKO methylation assay, In Cell Western (ICW) for mono-methyl arginine and DNA content
Assay type: cell-based
Settings: RKO cells, 72 hours, mono-methyl arginine signal normalised to DRAQ5, percent activation
Excerpt: RKO Methylation Assay RKO adherent cells were purchased from ATCC (American Type Culture Collection), Manassas, Va., USA. DMEM/Glutamax medium, penicillin-streptomycin, heat inactivated fetal bovine serum, 0.05% trypsin and D-PBS were purchased from Life Technologies, Grand Island, N.Y., USA. Odyssey blocking buffer, 800CW goat anti-rabbit IgG (H+L) antibody, and Licor Odyssey infrared scanner were purchased from Licor Biosciences, Lincoln, Nebr., USA. Mono-methyl arginine antibody was purchased from Cell Signaling Technology, Danvers, Mass., USA. Methanol was purchased from VWR, Franklin, Mass., USA. 10% Tween 20 was purchased from KPL, Inc., Gaithersburg, Md., USA. DRAQ5 was purchased from Biostatus Limited, Leicestershire, UK. RKO adherent cells were maintained in growth medium (DMEM/Glutamax medium supplemented with 10% v/v heat inactivated fetal bovine serum and 100 units/mL penicillin-streptomycin) and cultured at 37° C. under 5% CO2. Cell Treatment, in Cell Western (ICW) for Detection of Mono-Methyl Arginine and DNA Content. RKO cells were seeded in assay medium at a concentration of 20,000 cells per mL to a poly-D-lysine coated 384 well culture plate (BD Biosciences 356697) with 50 μL per well. Compound (100 nL) from a 96-well source plate was added directly to 384 well cell plate. Plates were incubated at 37° C., 5% CO2 for 72 hours. After three days of incubation, plates were brought to room temperature outside of the incubator for ten minutes and blotted on paper towels to remove cell media. 50 μL of ice cold 100% methanol was added directly to each well and incubated for 30 min at room temperature. After 30 min, plates were transferred to a Biotek EL406 plate washer and washed 2 times with 100 μL per well of wash buffer (1×PBS). Next 60 μL per well of Odyssey blocking buffer (Odyssey Buffer with 0.1% Tween 20 (v/v)) were added to each plate and incubated 1 hour at room temperature. Blocking buffer was removed and 20 μL per well of primary antibody was added (mono-methyl arginine diluted 1:200 in Odyssey buffer with 0.1% Tween 20 (v/v)) and plates were incubated overnight (16 hours) at 4° C. Plates were washed 5 times with 100 μL per well of wash buffer. Next 20 μL per well of secondary antibody was added (1:200 800CW goat anti-rabbit IgG (H+L) antibody, 1:1000 DRAQ5 (Biostatus limited) in Odyssey buffer with 0.1% Tween 20 (v/v)) and incubated for 1 hour at room temperature. The plates were washed 5 times with 100 μL per well wash buffer then 2 times with 100 μL per well of water. Plates were allowed to dry at room temperature then imaged on the Licor Odyssey machine which measures integrated intensity at 700 nm and 800 nm wavelengths. Both 700 and 800 channels were scanned. […] Each plate included fourteen control wells of DMSO only treatment (minimum activation) as well as fourteen control wells for maximum activation treated with 20 μM of a reference compound. The average of the ratio values for each control type was calculated and used to determine the percent activation for each test well in the plate. Reference compound was serially diluted three-fold in DMSO for a total of nine test concentrations, beginning at 20 μM. Percent activation was determined and EC30 curves were generated using triplicate wells per concentration of compound.

T1 sequence (Q99873 whole entry): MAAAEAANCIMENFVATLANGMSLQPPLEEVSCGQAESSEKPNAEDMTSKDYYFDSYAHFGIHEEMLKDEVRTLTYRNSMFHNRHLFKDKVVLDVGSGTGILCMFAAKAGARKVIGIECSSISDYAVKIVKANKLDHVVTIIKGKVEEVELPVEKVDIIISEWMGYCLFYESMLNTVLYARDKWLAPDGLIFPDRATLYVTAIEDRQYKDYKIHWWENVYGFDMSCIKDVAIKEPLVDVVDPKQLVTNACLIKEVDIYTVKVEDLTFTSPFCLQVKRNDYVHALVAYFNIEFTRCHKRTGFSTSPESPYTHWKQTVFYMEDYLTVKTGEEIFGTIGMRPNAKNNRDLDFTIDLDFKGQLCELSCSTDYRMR

PRMT1 RGG ICW EC30 [nM] | SMILES
217.2 | CNCCN(C)Cc1c[nH]nc1[C@@H]1CC[C@@H](OCCCOC)C2(CCCC2)C1 (racemic) [compound 26, N1-((3-((7R,10R)-10-(3-methoxypropoxy)spiro[4.5]decan-7-yl)-1H-pyrazol-4-yl)methyl)-N1,N2-dimethylethane-1,2-diamine]
216.4 | CNCCN(C)Cc1c[nH]nc1[C@@H]1CC[C@H](OCCCOC)C2(CCCC2)C1 (racemic) [compound 27, N1-((3-((7R,10S)-10-(3-methoxypropoxy)spiro[4.5]decan-7-yl)-1H-pyrazol-4-yl)methyl)-N1,N2-dimethylethane-1,2-diamine]
>5000 | CNCCN(C)Cc1c[nH]nc1C1CC(COCC2CC2)CC(COCC2CC2)C1 (stereo not drawn) [compound 2]
114.7 | CNCCN(C)Cc1c[nH]nc1[C@H]1CC[C@@]2(CCCCO2)CC1 [compound 3]
18.34 | CNCCN(C)Cc1c[nH]nc1[C@H]1CC[C@]2(CCCOC2)CC1 [compound 4, N1-((3-((6s,9s)-2-oxaspiro[5.5]undecan-9-yl)-1H-pyrazol-4-yl)methyl)-N1,N2-dimethylethane-1,2-diamine]
14.65 | CNCCN(C)Cc1c[nH]nc1[C@H]1CC[C@@]2(CCCOC2)CC1 [compound 5, N1-((3-((6r,9r)-2-oxaspiro[5.5]undecan-9-yl)-1H-pyrazol-4-yl)methyl)-N1,N2-dimethylethane-1,2-diamine]
949.3 | CNCCN(C)Cc1c[nH]nc1C1CCC(COCC(C)C)(COCC(C)C)CC1 [compound 6]
12.45 | CNCCN(C)Cc1c[nH]nc1C1CCC2(CCC(OC)CC2)CC1 (stereo not drawn) [compound 9, N1-((3-(9-methoxyspiro[5.5]undecan-3-yl)-1H-pyrazol-4-yl)methyl)-N1,N2-dimethylethane-1,2-diamine]
2001 | CNCCN(C)Cc1c[nH]nc1[C@H]1CC[C@]2(CCN(CCC(C)C)C2=O)CC1 [compound 10]
34.17 | CNCCN(C)Cc1c[nH]nc1[C@H]1CC[C@@]2(CCN(CCC(C)C)C2=O)CC1 [compound 11, (5r,8r)-2-isopentyl-8-(4-((methyl(2-(methylamino)ethyl)amino)methyl)-1H-pyrazol-3-yl)-2-azaspiro[4.5]decan-1-one]
>5000 | CNCCN(C)Cc1c[nH]nc1C1C[C@@H](C(=O)N(C)CC(C)C)C(C)(C)[C@H](C(=O)N(C)CC(C)C)C1 (stereo partly drawn) [compound 12]
>5000 | CNCCN(C)Cc1c[nH]nc1C1C[C@H](C(=O)NCCOC)C(C)(C)[C@H](C(=O)NCCOC)C1 (stereo partly drawn) [compound 13]
361.1 | CNCCN(C)Cc1c[nH]nc1C1=CCC(CF)(CF)CC1 [compound 15, N-((3-(4,4-bis(fluoromethyl)cyclohex-1-en-1-yl)-1H-pyrazol-4-yl)methyl)-N1,N2-dimethylethane-1,2-diamine]
839.3 | CNCCN(C)Cc1c[nH]nc1C1=CCC(COCC(F)(F)F)CC1 (stereo not drawn) [compound 16, N1,N2-dimethyl-N1-((3-(4-((2,2,2-trifluoroethoxy)methyl)cyclohex-1-en-1-yl)-1H-pyrazol-4-yl)methyl)ethane-1,2-diamine]
1835 | CCC1(CC)CC2(CCC(c3n[nH]cc3CN(C)CCNC)CC2)N(C)C1=O (stereo not drawn) [compound 22, 3,3-diethyl-1-methyl-8-(4-((methyl(2-(methylamino)ethyl)amino)methyl)-1H-pyrazol-3-yl)-1-azaspiro[4.5]decan-2-one]
1721 | CNCCN(C)Cc1c[nH]nc1[C@H]1CC[C@@H](COCC(F)(F)F)CC1 [compound 23, N1,N2-dimethyl-N1-((3-((1s,4s)-4-((2,2,2-trifluoroethoxy)methyl)cyclohexyl)-1H-pyrazol-4-yl)methyl)ethane-1,2-diamine]
161.6 | CNCCN(C)Cc1c[nH]nc1[C@H]1CC[C@H](COCC(F)(F)F)CC1 [compound 24, N1,N2-dimethyl-N1-((3-((1r,4r)-4-((2,2,2-trifluoroethoxy)methyl)cyclohexyl)-1H-pyrazol-4-yl)methyl)ethane-1,2-diamine]
>5000 | CNCCN(C)Cc1cn(C)nc1C1CCC(C)(C)[C@@H](C(=O)NCC(C)C)C1 (stereo partly drawn) [compound 25]
209 | CNCCN(C)Cc1c[nH]nc1C1CCC(C)(C)[C@H](COCCCOC)C1 (stereo partly drawn) [compound 30, {2-[({3-[(3R)-3-[(3-methoxypropoxy)methyl]-4,4-dimethylcyclohexyl]-1H-pyrazol-4-yl}methyl)(methyl)amino]ethyl}(methyl)amine]
453.6 | CCOC[C@@H]1CC(c2n[nH]cc2CN(C)CCNC)CCC1(C)C (stereo partly drawn) [compound 31, {2-[({3-[(3R)-3-(ethoxymethyl)-4,4-dimethylcyclohexyl]-1H-pyrazol-4-yl}methyl)(methyl)amino]ethyl}(methyl)amine]
517.9 | CNCCN(C)Cc1c[nH]nc1C1CCC(C)(C)[C@H](CO)C1 (stereo partly drawn) [compound 32, [(1R)-2,2-dimethyl-5-[4-({methyl[2-(methylamino)ethyl]amino}methyl)-1H-pyrazol-3-yl]cyclohexyl]methanol]
40.81 | CCC1(CC)C[C@]2(CC[C@H](c3n[nH]cc3CN(C)CCNC)CC2)OC1=O [compound 33, (5s,8s)-3,3-diethyl-8-(4-((methyl(2-(methylamino)ethyl)amino)methyl)-1H-pyrazol-3-yl)-1-oxaspiro[4.5]decan-2-one]
65.46 | CCC1(CC)C[C@]2(CC[C@@H](c3n[nH]cc3CN(C)CCNC)CC2)OC1=O [compound 34, (5r,8r)-3,3-diethyl-8-(4-((methyl(2-(methylamino)ethyl)amino)methyl)-1H-pyrazol-3-yl)-1-oxaspiro[4.5]decan-2-one]
330.1 | CNCCN(C)Cc1c[nH]nc1C1CCC(C)(C)[C@H](COCCOC)C1 (stereo partly drawn) [compound 35, {2-[({3-[(3R)-3-[(2-methoxyethoxy)methyl]-4,4-dimethylcyclohexyl]-1H-pyrazol-4-yl}methyl)(methyl)amino]ethyl}(methyl)amine]
66.17 | CCCOCC1(COCCC)CCC(c2n[nH]cc2CN(C)CCNC)CC1 [compound 36, N^1-((3-(4,4-bis(propoxymethyl)cyclohexyl)-1H-pyrazol-4-yl)methyl)-N^1,N^2-dimethylethane-1,2-diamine]
245.5 | CC[C@]12CC[C@](CC)(C[C@H](c3n[nH]cc3CN(C)CCNC)C1)O2 [compound 37, N1-((3-((1R,3r,5S)-1,5-diethyl-8-oxabicyclo[3.2.1]octan-3-yl)-1H-pyrazol-4-yl)methyl)-N1,N2-dimethylethane-1,2-diamine]

SMILES | PRMT1 RGG ICW EC30 [nM]
CNCCN(C)Cc1c[nH]nc1C1CCC(OCCCOC)C2(CCCC2)C1 (mixture of isomers) [compound 19, N1-((3-(10-(3-methoxypropoxy)spiro[4.5]decan-7-yl)-1H-pyrazol-4-yl)methyl)-N1,N2-dimethylethane-1,2-diamine dihydrochloride] | 440.3
CCN(C)C(=O)C1CC(c2n[nH]cc2CN(C)CCNC)CC(C(=O)NCCC(C)C)C1(C)C (stereo not drawn) [compound 14, N1-ethyl-N3-isopentyl-N1,2,2-trimethyl-5-(4-((methyl(2-(methylamino)ethyl)amino)methyl)-1H-pyrazol-3-yl)cyclohexane-1,3-dicarboxamide] | >5000
CNCCN(C)Cc1c[nH]nc1C1CCC(C)(C)[C@H](OCC(C)C)C1 (stereo partly drawn) [compound 20, ({3-[(3R)-4,4-dimethyl-3-(2-methylpropoxy)cyclohexyl]-1H-pyrazol-4-yl}methyl)(methyl)[2-(methylamino)ethyl]amine] | 204.3
CCC1CC(c2n[nH]cc2CN(C)CCNC)CC(C(=O)NCCOC)C1(C)C (stereo not drawn) [compound 21, 3-ethyl-N-(2-methoxyethyl)-2,2-dimethyl-5-[4-([methyl[2-(methylamino)ethyl]amino]methyl)-1H-pyrazol-3-yl]cyclohexane-1-carboxamide dihydrochloride] | >5000
